{"source": "patent US20030061759A1", "about": "“Method for expelling harmful insects by volatilization of a chemical” (FUMAKILLA LIMITED, priority 2000, published 2003)", "key": {"[1]": {"test_system": "female adult stegomyia mosquitoes (Aedes albopictus)", "assay": "Comparative debugging efficaciousness tests: bloodsucking prevention on rats, liquid type electric mosquito repellent utensil", "assay_type": "in vivo", "conditions": "for Potency Ratio (Etoc 100), of IC50 Value / Potency Ratio (Etoc 100), of IC90 Value: relative to d,d-T80-prallethrin (Etoc) = 100", "description": "First, debugging efficaciousness tests were performed. For the criterion of judgment to compare degrees of efficaciousness, the effect of bloodsucking by mosquitoes of rats was adopted. Based on this, the following efficaciousness tests were carried out.\nComparative Debugging Efficaciousness Tests\nSample chemicals that were used were as follows: d,d-T80-prallethrin, transfluthrin, d1,d-T80-allethrin, d-T80-furamethrin, terallethrin and empenthrin; and pyrethroid technical products (sample chemicals) A, B, C, D, E, F, G and H.\nSample insects that were used were as follows: female adult stegomyia mosquitoes (Aedes albopictus) of Fumakilla (spelled phonetically) series 6th to 9th after emergence.\nSample chemical volatilizing form: A liquid type electric mosquito repellent utensil, a liquid agent (referred to below as “sample liquid”), obtained by diluting each of the sample chemicals with a solvent in a varying concentration, was allowed to volatilize.\nMethod used for tests: A test was conducted in two 8 straw mat (13.2 m^2) rooms, one as a treatment zone and the other as a non-treatment zone, both in a no-wind state and at a constant room temperature of 32° C.\nIn the treatment zone, three cages each with a rat confined therein were placed equidistantly spaced apart (about 20 cm) in the center of the test room. The mosquito repellent utensil placed on the floor surface of the center of the test room was preliminarily electrically energized for operation, and to thermally volatilize each of the sample liquids and fumigate the room therewith for a period of 30 minutes, and then about 100 (one hundred) of sample mosquitoes were released into the test room. After two hours following the release of the mosquitoes, all these sample mosquitoes were knocked-down by using a mosquito repellent mat, and the number of the mosquitoes which had bloodsucking was counted to find the proportion of bloodsucking.\nIn the non-treatment zone, also, after the 2 hours of bloodsucking, the proportion of bloodsucking was found.\nA rate of bloodsucking prevention was derived from the proportions of bloodsucking in the treatment and non-treatment rooms as expressed by the following equation:\nRate of bloodsucking prevention =[(Total bloodsucking proportion in the non-treatment zone−Total bloodsucking proportion in the treatment zone)÷Total bloodsucking proportion in the non-treatment zone]×100\nAlso, on the basis of these amounts of volatilization and rates of bloodsucking prevention, an amount of volatilization at a 50% rate of bloodsucking prevention (IC50 value) and an amount of volatilization at a 90% rate of bloodsucking prevention (IC90 value) are found and shown in Table 1 below."}, "[2]": {"assay": "Comparative vapor pressure tests by gas chromatography", "assay_type": "physicochemical", "description": "2. Comparative Vapor Pressure Tests\nNext, by using gas chromatography, the various chemicals including sample chemicals A, B and C screened out by the foregoing comparative debugging efficaciousness tests were compared with d,d-T80-prallethrin (Etoc) as regards to their vapor pressures.\nThe gas chromatography test included as its temperature conditions an initial temperature of 60° C., and a temperature rise of 5° C. per minute up to a maximum temperature of 250° C., which was held for a period of 5 minutes, whereupon the process ended.\nThe filler used was made up of methyl silicon polymer, which is non-polar.\nIt should also be noted that as an internal standard substance use was made of sebacic acid-n-butyl and which was added to confirm that there was no deviation in retention time from one test to another.\nRetention times for the various chemicals are listed in Table 2 in the order of shorter to longer."}, "[3]": {"test_system": "female adult common house mosquitoes (Culex pipiens pallens)", "assay": "Example 1: spontaneous volatilization efficaciousness test in 33 m^3 room (knockdown, KT50)", "assay_type": "in vivo", "text": "Using sample chemicals A, B and C screened out by the preliminary tests, the efficaciousness of each of them when allowed to volatilize spontaneously was compared with that of transfluthrin when allowed to volatilize spontaneously.\nSample Preparations (Chemicals and Their Carriers According to the Present Invention):\n(§1) A non-woven polypropylene fabric (made by Idemitsu Petroleum Chemicals Co., Ltd., product name RW2100, density 100 grams/m^2) of 50 cm×40 cm was coated with a hexane solution of 100 milliliter containing 1% (W/V) sample chemicals A, B, C and left to dry for 24 hours (effective amount of chemical: 1000 milligrams).\nComparative Preparation (Chemical and its Carrier):\nas §1, with “of transfluthrin” for “sample chemicals A, B, C”\nTesting Method: Efficaciousness Tests in an 8 Straw Mat room with a volume of 33 m^3\nIn the center of the test room with a volume of 33 m^3 (3.65 m×3.65 m×2.5 m high), each chemical carrier as prepared as above was placed as hung on a hook suspended in the center of the room to let the corresponding chemical volatilize spontaneously for a period of 3 hours. Thereafter, a triangular net casing (20 cm×20 cm×16.4 cm high) of 16 mesh nylon net containing 10 (ten) female adult common house mosquitoes (Culex pipiens pallens) was placed as hung in an area at each of the four corners (spaced from the wall surfaces at a distance of 90 cm) at a height of 150 cm from the room floor and was exposed to the chemical atmosphere.\nA test was also conducted likewise for the comparative carrier.\nAfter the tests ended, the samples chemicals were let to volatilize spontaneously in the room having a constant temperature of 30° C. The same test was repeated at given intervals and efficaciousness was then examined each time."}, "[4]": {"conditions": "13.2 m^2 room, 32° C., 30 min pre-fumigation, 2 hours after release, rats"}}, "note": "Like-named read-outs stand apart in the source and are kept apart here.", "data": [{"smiles": "C#CC(OC(=O)C1C(C=C(Cl)Cl)C1(C)C)C(F)=CCC", "note": "(stereo not drawn) [Sample Chemical B, 1-ethnyl-2-fluoro-2-pentenyl 3-(2,2-dichlorovinyl)-2,2-dimethylcyclopropanecarboxylate]", "values": [{"measurement": "IC50 Value (amount of volatilization at a 50% rate of bloodsucking prevention)", "setting": "[1]; [4]", "result": 0.0047, "unit": "mg/h"}, {"measurement": "IC90 Value (amount of volatilization at a 90% rate of bloodsucking prevention)", "setting": "[1]; [4]", "result": 0.0083, "unit": "mg/h"}, {"measurement": "efficacy of preventing mosquitoes from bloodsucking rats compared with transfluthrin", "setting": "[1]; comparison in words", "result": "more efficacious than transfluthrin"}, {"measurement": "Potency Ratio (Etoc 100), of IC50 Value", "setting": "[1]", "result": 172.3}, {"measurement": "Potency Ratio (Etoc 100), of IC90 Value", "setting": "[1]", "result": 469.9}, {"measurement": "Retention Time (gas chromatography, as comparison of vapor pressure)", "setting": "[2]", "result": 26.4, "unit": "min"}, {"measurement": "vapor pressure compared with transfluthrin and d,d-T80-prallethrin", "setting": "[2]", "result": "lower than transfluthrin, but higher than d,d-T80-prallethrin"}, {"measurement": "potency and retention of potency compared with transfluthrin", "setting": "[3]; comparison in words", "result": "higher in potency and also longer in retention time than transfluthrin"}, {"measurement": "KT50", "setting": "[3]; elapsed time 0 hr", "result": 8.64, "unit": "min"}, {"measurement": "KT50", "setting": "[3]; elapsed time 168 hr", "result": 7.53, "unit": "min"}, {"measurement": "KT50", "setting": "[3]; elapsed time 336 hr", "result": 7.77, "unit": "min"}, {"measurement": "KT50", "setting": "[3]; elapsed time 504 hr", "result": 7.48, "unit": "min"}, {"measurement": "KT50", "setting": "[3]; elapsed time 672 hr", "result": 6.45, "unit": "min"}, {"measurement": "KT50", "setting": "[3]; elapsed time 864 hr", "result": 7.90, "unit": "min"}, {"measurement": "KT50", "setting": "[3]; elapsed time 1056 hr", "result": 8.00, "unit": "min"}, {"measurement": "KT50", "setting": "[3]; elapsed time 1200 hr", "result": 8.00, "unit": "min"}, {"measurement": "KT50", "setting": "[3]; elapsed time 1344 hr", "result": 8.40, "unit": "min"}, {"measurement": "KT50", "setting": "[3]; elapsed time 1536 hr", "result": 8.60, "unit": "min"}, {"measurement": "KT50", "setting": "[3]; elapsed time 1680 hr", "result": 9.60, "unit": "min"}, {"measurement": "KT50", "setting": "[3]; elapsed time 1848 hr", "result": 10.40, "unit": "min"}, {"measurement": "KT50", "setting": "[3]; elapsed time 2016 hr", "result": 9.87, "unit": "min"}, {"measurement": "KT50", "setting": "[3]; elapsed time 2208 hr", "result": 11.70, "unit": "min"}, {"measurement": "KT50", "setting": "[3]; elapsed time 2352 hr", "result": 10.80, "unit": "min"}, {"measurement": "KT50", "setting": "[3]; elapsed time 2520 hr", "result": 12.00, "unit": "min"}, {"measurement": "KT50", "setting": "[3]; elapsed time 2688 hr", "result": 12.70, "unit": "min"}, {"measurement": "KT50", "setting": "[3]; elapsed time 2856 hr", "result": 13.50, "unit": "min"}, {"measurement": "KT50", "setting": "[3]; elapsed time 3024 hr", "result": 14.90, "unit": "min"}, {"measurement": "KT50", "setting": "[3]; elapsed time 3192 hr", "result": 18.60, "unit": "min"}, {"measurement": "KT50", "setting": "[3]; elapsed time 3360 hr", "result": 20.70, "unit": "min"}, {"measurement": "KT50", "setting": "[3]; elapsed time 3528 hr", "result": 22.90, "unit": "min"}, {"measurement": "KT50", "setting": "[3]; elapsed time 3696 hr", "result": 26.80, "unit": "min"}, {"measurement": "KT50", "setting": "[3]; elapsed time 3864 hr", "result": 28.00, "unit": "min"}, {"measurement": "KT50", "setting": "[3]; elapsed time 4032 hr", "result": 25.60, "unit": "min"}, {"measurement": "KT50", "setting": "[3]; elapsed time 4200 hr", "result": 32.70, "unit": "min"}]}, {"smiles": "CC1(C)[C@H](C=C(Cl)Cl)[C@H]1C(=O)OCc1c(F)c(F)cc(F)c1F", "note": "[Transfluthrin, reference compound]", "values": [{"measurement": "Potency Ratio (Etoc 100), of IC50 Value", "setting": "[1]", "result": 19.0}, {"measurement": "Potency Ratio (Etoc 100), of IC90 Value", "setting": "[1]", "result": 29.2}, {"measurement": "Retention Time (gas chromatography, as comparison of vapor pressure)", "setting": "[2]; 60° C. initial, 5° C. per minute up to 250° C., non-polar methyl silicon polymer filler", "result": 23.6, "unit": "min"}, {"measurement": "KT50", "setting": "[3]; elapsed time 0 hr", "result": 11.10, "unit": "min"}, {"measurement": "KT50", "setting": "[3]; elapsed time 168 hr", "result": 8.73, "unit": "min"}, {"measurement": "KT50", "setting": "[3]; elapsed time 336 hr", "result": 9.17, "unit": "min"}, {"measurement": "KT50", "setting": "[3]; elapsed time 504 hr", "result": 13.40, "unit": "min"}, {"measurement": "KT50", "setting": "[3]; elapsed time 672 hr", "result": 12.10, "unit": "min"}, {"measurement": "KT50", "setting": "[3]; elapsed time 864 hr", "result": 17.20, "unit": "min"}, {"measurement": "KT50", "setting": "[3]; elapsed time 1056 hr", "result": 15.60, "unit": "min"}, {"measurement": "KT50", "setting": "[3]; elapsed time 1200 hr", "result": 20.40, "unit": "min"}, {"measurement": "KT50", "setting": "[3]; elapsed time 1344 hr", "result": 18.80, "unit": "min"}, {"measurement": "KT50", "setting": "[3]; elapsed time 1536 hr", "result": 28.10, "unit": "min"}, {"measurement": "KT50", "setting": "[3]; elapsed time 1680 hr", "result": 30.40, "unit": "min"}]}]}
